Structures can show the parent of a compound that is named as a salt.
Key:
Jak2 (a.a. 828-1132) = target: T1, Jak2 (a.a. 828-1132) (Homo sapiens, UniProt O60674); experiment: In vitro JAK kinase assay (HTRF, phosphorylation of a biotinylated peptide), JAK2, reported as JAK2/JAK1 ratio; format: biochemical
T1 construct: Jak2 (a.a. 828-1132); His tag (N); made in house; host or cells: insect cells (baculovirus)
Method: (§1) Compounds herein were tested for inhibitory activity of JAK targets according to the following in vitro assay described in Park et al., Analytical Biochemistry 1999, 269, 94-104. The catalytic domains of human JAK1 (a.a. 837-1142), Jak2 (a.a. 828-1132) and Jak3 (a.a. 781-1124) with an N-terminal His tag were expressed using baculovirus in insect cells and purified. The catalytic activity of JAK1, JAK2 or JAK3 was assayed by measuring the phosphorylation of a biotinylated peptide. The phosphorylated peptide was detected by homogenous time resolved fluorescence (HTRF). IC50s of compounds were measured for each kinase in the 40 microL reactions that contain the enzyme, ATP and 500 nM peptide in 50 mM Tris (pH 7.8) buffer with 100 mM NaCl, 5 mM DTT, and 0.1 mg/mL (0.01%) BSA. The ATP concentration in the reactions was 90 μM for Jak1, 30 μM for Jak2 and 3 μM for Jak3 for Km conditions. For the 1 mM IC50 measurements, ATP concentration in the reactions was 1 mM. Reactions were carried out at RT for 1 h and then stopped with 20 μL 45 mM EDTA, 300 nM SA-APC, 6 nM Eu-Py20 in assay buffer (Perkin Elmer, Boston, Mass.). Binding to the Europium labeled antibody took place for 40 min and HTRF signal was measured on a Fusion plate reader (Perkin Elmer, Boston, Mass.).
(§2) Compounds herein were tested for inhibitory activity of JAK1 and JAK2 targets according to the assay of Example A (experiments run at Km or 1 mM as indicated). The symbol “+” indicates an IC50<50 nM; the symbol “++” indicates an IC50≧50 and ≦100 nM; and the symbol “+++” indicates an IC50>100 and ≦500 nM.

[1] = target: T2, human JAK1 (a.a. 837-1142) (Homo sapiens, UniProt P23458); experiment: In vitro JAK kinase assay (HTRF, phosphorylation of a biotinylated peptide), JAK1; format: biochemical
T2 construct: human JAK1 (a.a. 837-1142); His tag (N); made in house; host or cells: insect cells (baculovirus)
T2 sequence (P23458 849-1154): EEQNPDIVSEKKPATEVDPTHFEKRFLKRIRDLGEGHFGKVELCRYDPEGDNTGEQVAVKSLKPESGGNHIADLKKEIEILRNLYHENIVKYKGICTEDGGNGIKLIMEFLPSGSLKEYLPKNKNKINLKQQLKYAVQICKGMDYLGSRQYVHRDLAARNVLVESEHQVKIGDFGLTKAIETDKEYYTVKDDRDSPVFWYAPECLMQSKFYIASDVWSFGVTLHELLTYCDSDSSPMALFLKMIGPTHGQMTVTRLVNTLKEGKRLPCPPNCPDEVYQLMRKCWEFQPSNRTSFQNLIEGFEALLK
Method: as §1, §2

[2] = Assay Conditions Km (ATP 90 μM for Jak1, 30 μM for Jak2)
[3] = Assay Conditions Km (ATP 90 μM for Jak1)

T1 sequence (O60674 828-1132): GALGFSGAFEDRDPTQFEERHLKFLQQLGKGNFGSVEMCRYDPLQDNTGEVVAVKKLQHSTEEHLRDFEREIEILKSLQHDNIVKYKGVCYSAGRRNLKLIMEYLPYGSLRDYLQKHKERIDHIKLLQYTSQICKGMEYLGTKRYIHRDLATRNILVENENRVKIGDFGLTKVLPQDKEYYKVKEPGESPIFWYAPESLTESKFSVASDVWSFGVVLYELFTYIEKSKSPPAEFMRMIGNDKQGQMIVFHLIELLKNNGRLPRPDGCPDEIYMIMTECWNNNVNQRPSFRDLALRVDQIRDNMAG

Row | Structure (SMILES) | JAK2/JAK1 IC50 ratio (Jak2 (a.a. 828-1132); Assay Conditions 1 mM ATP) | IC50 ([1]; Assay Conditions 1 mM ATP) | JAK2/JAK1 IC50 ratio (Jak2 (a.a. 828-1132); [2]) | IC50 [1, 3]
1 | Cn1ccnc(N2CCC(C(CC#N)n3cc(-c4ncnc5[nH]ccc45)cn3)C2)c1=O (racemic) [Example 37, ±3-[1-(4-methyl-3-oxo-3,4-dihydropyrazin-2-yl)pyrrolidin-3-yl]-3-[4-(7H-pyrrolo[2,3-d]pyrimidin-4-yl)-1H-pyrazol-1-yl]propanenitrile trifluoroacetate] | >8.7 | < 50 nM | – | –
2 | N#CC[C@@H]([C@H]1CCN(c2nc3ccsc3cc2C#N)C1)n1cc(-c2ncnc3[nH]ccc23)cn1 [Example 75, 5-((3S)-3-{(1S)-2-cyano-1-[4-(7H-pyrrolo[2,3-d]pyrimidin-4-yl)-1H-pyrazol-1-yl]ethyl}pyrrolidin-1-yl)thieno[3,2-b]pyridine-6-carbonitrile] | 4.6 | < 50 nM | – | –
3 | N#CCC(C1CCN(c2nc3cccc(OC(F)F)c3o2)C1)n1cc(-c2ncnc3[nH]ccc23)cn1 (single isomer, unassigned) [Example 164, 3-(4-(7H-pyrrolo[2,3-d]pyrimidin-4-yl)-1H-pyrazol-1-yl)-3-(1-(7-(difluoromethoxy)benzo[d]oxazol-2-yl)pyrrolidin-3-yl)propanenitrile] | 10.9 | < 50 nM | – | –
4 | N#CC[C@@H]([C@H]1CCN(c2cccc(C(F)F)c2C#N)C1)n1cc(-c2ncnc3[nH]ccc23)cn1 [Example 111, 2-((S)-3-((S)-1-(4-(7H-pyrrolo[2,3-d]pyrimidin-4-yl)-1H-pyrazol-1-yl)-2-cyanoethyl)pyrrolidin-1-yl)-6-(difluoromethyl)benzonitrile trifluoroacetate salt] | 37.6 | < 50 nM | – | –
5 | CSc1nc(N2CC[C@H]([C@H](CC#N)n3cc(-c4ncnc5[nH]ccc45)cn3)C2)c(F)cc1F [Example 129, (3S)-3-{(3S)-1-[3,5-Difluoro-6-(methylthio)pyridin-2-yl]pyrrolidin-3-yl}-3-[4-(7H-pyrrolo[2,3-d]pyrimidin-4-yl)-1H-pyrazol-1-yl]propanenitrile] | 5.9 | < 50 nM | – | –
6 | N#CCC(C1CCN(c2nccc(Cl)n2)C1)n1cc(-c2ncnc3[nH]ccc23)cn1 (single isomer, unassigned) [Example 4a, 3-[1-(4-chloropyrimidin-2-yl)pyrrolidin-3-yl]-3-[4-(7H-pyrrolo[2,3-d]pyrimidin-4-yl)-1H-pyrazol-1-yl]propanenitrile] | – | – | 8.8 | < 50 nM
7 | N#CCC(C1CCN(c2nc3c(O)cccc3o2)C1)n1cc(-c2ncnc3[nH]ccc23)cn1 (single isomer, unassigned) [Example 165, 3-[1-(4-hydroxy-1,3-benzoxazol-2-yl)pyrrolidin-3-yl]-3-[4-(7H-pyrrolo[2,3-d]pyrimidin-4-yl)-1H-pyrazol-1-yl]propanenitrile] | 7.1 | < 50 nM | – | –
8 | N#CCC(C1CCN(c2cccc(Cl)[n+]2[O-])C1)n1cc(-c2ncnc3[nH]ccc23)cn1 (single isomer, unassigned) [Example 45, 3-[1-(6-chloro-1-oxidopyridin-2-yl)pyrrolidin-3-yl]-3-[4-(7H-pyrrolo[2,3-d]pyrimidin-4-yl)-1H-pyrazol-1-yl]propanenitrile] | – | – | 7.4 | < 50 nM
9 | CS(=O)(=O)c1ccc(F)c(N2CC[C@H]([C@H](CC#N)n3cc(-c4ncnc5[nH]ccc45)cn3)C2)n1 [Example 133, (3S)-3-{(3S)-1-[3-fluoro-6-(methylsulfonyl)pyridin-2-yl]pyrrolidin-3-yl}-3-[4-(7H-pyrrolo [2,3-d]pyrimidin-4-yl)-1H-pyrazol-1-yl] propanenitrile trifluoroacetate] | 3 | 50 to 100 nM | – | –
10 | N#CCC(C1CCN(c2nc3cc(Cl)ccc3o2)C1)n1cc(-c2ncnc3[nH]ccc23)cn1 (single isomer, unassigned) [Example 10, 3-[1-(5-chloro-1,3-benzoxazol-2-yl)pyrrolidin-3-yl]-3-[4-(7H-pyrrolo[2,3-d]pyrimidin-4-yl)-1H-pyrazol-1-yl]propanenitrile] | – | – | 1.9 | < 50 nM
11 | N#CCC(C1CCN(c2nc3cccc(CO)c3o2)C1)n1cc(-c2ncnc3[nH]ccc23)cn1 (single isomer, unassigned) [Example 166, 3-{1-[7-(hydroxymethyl)-1,3-benzoxazol-2-yl]pyrrolidin-3-yl}-3-[4-(7H-pyrrolo[2,3-d]pyrimidin-4-yl)-1H-pyrazol-1-yl]propanenitrile] | >8.7 | < 50 nM | – | –
12 | CCS(=O)(=O)c1cc(N2CCC(C(CC#N)n3ccc(-c4ncnc5[nH]ccc45)c3)C2)ccn1 (racemic) [Example 148-rac, 3-{1-[2-(ethylsulfonyl)pyridin-4-yl]pyrrolidin-3-yl}-3-[3-(7H-pyrrolo[2,3-d]pyrimidin-4-yl)-1H-pyrrol-1-yl]propanenitrile] | 4.0 | < 50 nM | – | –
13 | COc1cccc(N2CC[C@H]([C@H](CC#N)n3cc(-c4ncnc5[nH]ccc45)cn3)C2)c1C#N [Example 55, 2-((3S)-3-{(1S)-2-cyano-1-[4-(7H-pyrrolo[2,3-d]pyrimidin-4-yl)-1H-pyrazol-1-yl]ethyl}pyrrolidin-1-yl)-6-methoxybenzonitrile trifluoroacetate salt] | >8 | < 50 nM | – | –
14 | N#CC[C@@H]([C@H]1CCN(c2nc(Cl)ccc2N)C1)n1cc(-c2ncnc3[nH]ccc23)cn1 [Example 105, (S)-3-(4-(7H-pyrrolo[2,3-d]pyrimidin-4-yl)-1H-pyrazol-1-yl)-3-((S)-1-(3-amino-6-chloropyridin-2-yl)pyrrolidin-3-yl)propanenitrile trifluoroacetate salt] | 3.0 | < 50 nM | – | –
15 | N#CCC(C1CCN(c2ncc3c(c2C#N)SCC3)C1)n1cc(-c2ncnc3[nH]ccc23)cn1 (single isomer, unassigned) [Example 173, 6-(3-{2-cyano-1-[4-(7H-pyrrolo[2,3-d]pyrimidin-4-yl)-1H-pyrazol-1-yl]ethyl}pyrrolidin-1-yl)-2,3-dihydrothieno[3,2-c]pyridine-7-carbonitrile] | >27.3 | < 50 nM | – | –
16 | CCOc1cccc2nc(N3CCC(C(CC#N)n4cc(-c5ncnc6[nH]ccc56)cn4)C3)oc12 (single isomer, unassigned) [Example 163, 3-(4-(7H-pyrrolo[2,3-d]pyrimidin-4-yl)-1H-pyrazol-1-yl)-3-(1-(7-ethoxybenzo[d]oxazol-2-yl)pyrrolidin-3-yl)propanenitrile] | 3.3 | < 50 nM | – | –
17 | N#CC[C@@H]([C@H]1CCN(c2ncnc(C(F)F)c2C#N)C1)n1cc(-c2ncnc3[nH]ccc23)cn1 [Example 110, 4-((S)-3-((S)-1-(4-(7H-pyrrolo[2,3-d]pyrimidin-4-yl)-1H-pyrazol-1-yl)-2-cyanoethyl)pyrrolidin-1-yl)-6-(difluoromethyl)pyrimidine-5-carbonitrile trifluoroacetate salt] | 17.6 | < 50 nM | – | –
18 | O=S1(=O)CCc2cc(F)c(N3CC[C@H](C(CF)n4cc(-c5ncnc6[nH]ccc56)cn4)C3)nc21 (stereo partly drawn) [Example 86, 4-(1-{2-fluoro-1-[(3S)-1-(5-fluoro-1,1-dioxido-2,3-dihydrothieno[2,3-b]pyridin-6-yl)pyrrolidin-3-yl]ethyl}-1H-pyrazol-4-yl)-7H-pyrrolo[2,3-d]pyrimidine tetrakis(trifluoroacetate)] | 13.0 | < 50 nM | – | –
19 | N#CCC(n1cc(-c2ncnc3[nH]ccc23)cn1)C1(F)CCN(c2nc3cccnc3o2)C1 (single isomer, unassigned) [31, Step 4a, enantiomer 2] | 5.1 | 50 to 100 nM | – | –
20 | N#CC[C@@H]([C@H]1CCN(c2ncc(CC(F)F)nc2C#N)C1)n1cc(-c2ncnc3[nH]ccc23)cn1 [Example 139, 3-((3S)-3-{(1S)-2-cyano-1-[4-(7H-pyrrolo[2,3-d]pyrimidin-4-yl)-1H-pyrazol-1-yl]ethyl}pyrrolidin-1-yl)-6-(2,2-difluoroethyl)pyrazine-2-carbonitrile trifluoroacetate] | – | < 50 nM | – | –
21 | N#CC[C@@H]([C@H]1CCN(c2nc(Cl)c(F)cc2NC=O)C1)n1cc(-c2ncnc3[nH]ccc23)cn1 [Example 92, N-(2-((S)-3-((S)-1-(4-(7H-pyrrolo[2,3-d]pyrimidin-4-yl)-1H-pyrazol-1-yl)-2-cyanoethyl)pyrrolidin-1-yl)-6-chloro-5-fluoropyridin-3-yl)formamide trifluoroacetate] | – | < 50 nM | – | –

From patent US8716303B2, “N-(hetero)aryl-pyrrolidine derivatives of pyrazol-4-yl-pyrrolo[2,3-d]pyrimidines and pyrrol-3-yl-pyrrolo[2,3-d]pyrimidines as janus kinase inhibitors” (Incyte Corporation, priority 2009, dated 2014)
